# Columns and labels:
# [1] = Solubility in ternary solvent mixture with water as anti-solvent; format: physicochemical; settings: 150 mg LAC-34 free base; 1 ml polyethylene glycol + 1 ml ethanol + 0.6 ml water
# [2] = Local vasodilatation at the dermal injection site; format: in vivo; settings: contrary to lidocaine
# [3] = Saturation solubility in key solvents for dermal drug delivery; format: physicochemical
# Protocol: A liquid's capability to solubilize LAC-34 was screened by adding a known mass of LAC-34 to a known volume/mass of liquid. Saturation solubility was measured by adding an excess of drug substance and allowing the suspension to equilibrate while stirring for 2-3 days. A sample of the suspension was filtered though a 0.2 μm PTFE membrane followed by dilution (if required) and HPLC analysis. For several mixed solvent systems that included water, a known mass of drug substance was dissolved in a known mass of solvent(s). This solution was then titrated with water while stirring until the solution became cloudy.
# HPLC analysis was performed with a HP 1050 system (He degasser, quaternary pump, auto-injector, and variable wavelength detector). The column heater was manufactured by Waters. Data collection and analysis was performed using Chemstation® software.
# The saturation solubility of LAC-34 was measured in capric/caprylic triglycerides (CCT), dimethylsulfoxide (DMSO), ethanol, isopropanol, isopropyl myristate (IPM), pentane, propylene glycol (PG), and water. […]
# All of the solvents, with the exception of water, were able to dissolve large quantities of LAC-34. […] Propylene glycol (PG), which has multiple actions for dermal drug delivery (see Table 1), was also able to solubilize significant quantities of LAC-34. […]
# [4] = Physical state of LAC-34 solutions at 4° C.; format: physicochemical; settings: 20% LAC-34 in benzyl alcohol
# [5] = test system: Na+ channel (site 2) in the rat cerebral cortex; settings: 10 nM [3H]batrachotoxin, 60 min at 22° C., rat cerebral cortex membranes; read-out: IC50-values for inhibition of batrachotoxinin binding
# [6] = test system: animal models of neuropathic pain; test: Animal models of neuropathic pain; format: in vivo; settings: potentiated by addition of capsaicin
# [7] = test system: guinea pigs; test: Dermal anesthetic activity after dermal application, pinprick method (algesimeter); format: in vivo, guinea pig; settings: highest score over time after patch removal, 5.0% solution
# Protocol: The purpose of this study was to determine the degree to which various salt forms of LAC-34 contribute to the local dermal anesthetic effect of the compound, following dermal application to guinea pigs.
# Four groups of six male guinea pigs received a dose of 2.0 ml of a 5.0% solution of four test articles (LAC-34 base, LAC-34 mono-HCl, LAC-34-di HCl and LAC-34 mesylate) that had been applied onto a two inch square, 4 layer thick gauze pad on depilated dosal skin of each guinea pig. Similarly, one group of guinea pigs received the vehicle, which consisted of DMSO/water (90 percent/10 percent, v/v) and served as the control group. The gauze was occluded and the guinea pigs were wrapped for 30 min. Animals were assessed for initial pain reaction (anesthetic depth) at 15 minute intervals up to 3 hours and at 24 hours. An algesimeter, set at 10 g, was employed to assess the onset and depth of anesthesia using the pinprick method causing a twitch response or non-response. The “Average Anesthetic Score” was defined as number of probings not producing a dermal twitch response. Thus, a situation where there were no dermal twitch responses to six probings represent a maximal anesthetic effect and is denoted as an Average Anesthetic Score of 6.
compound,measurement,setting,value
"c1ccc(N(CCC2CCCCN2)C2Cc3ccccc3C2)cc1 (racemic) [LAC-34, 2-[2-(N-Phenyl-N-2-indanyl)aminoethyl]piperidine]",Solubility in ternary solvent mixture,[1],5.5 % (w/w)
same,Local vasodilatation at the dermal injection site,[2],not to cause local vasodilatation
same,Solubility in isopropanol,[3]; 0.25 g LAC-34 solubilized once isopropanol level was 0.225 g,approximately 526 mg/mL
same,LAC-34 Solubility (saturation),[3]; solvent as printed on the line: Propylene glycol (PG),5 µg/mL
same,Physical state at 4° C.,[4],still a solution
same,IC50,[5],270 nM
same,Analgesic activity,[6],exerts analgesic activity
same,Maximal depth of anesthesia (Average Anesthetic Score),[7],4.8

# Source: patent US20090137628A1, “Formulations of Indanylamines and the Use Thereof as Local Anesthetics and as Medication for Chronic Pain” (BRIDGE PHARMA, INC., priority 2005, published 2009)
